Assay [1] deals with T1, Glucagon-like peptide-1 receptor (GLP1R) (Homo sapiens, UniProt P43220).
T1 construct: expressed in transfected cells; host or cells: HEK293
In words: Agonist activity on GLP1R, cAMP response element luciferase reporter gene in HEK293 cells. The format is cell-based. Conditions: HEK293 cells stably transfected with GLP1R and pCRE-Luc, 5 hours incubation; read-out: Maximum reaction rate. An excerpt:
GLP1R is a receptor coupled with Gs protein, of which the binding with the agonists will result in an increase of intracellular cAMP concentration. In the present experiment, GLP1R and the luciferase reporter gene plasmid regulated by cAMP response elements are co-transfected into HEK293 cells. When the compound binds to the receptor and activates the receptors, the expression of the luciferase will increase. The activation status of the compound to GLP1R can be learned by testing the activity of the luciferase.
2. The compounds or positive drugs having a certain concentration gradient were added (3 wells per concentration) and incubated at 37° C. for 5 hours. The negative control was solvent DMSO.
3. 50 μl culture medium was taken from each well, and 50 μl of the luciferase substrate were added and vortexed for 10 minutes.
4. 80 μl reaction solution was taken and transferred to a white 96 well plate, then detected on the Invision microplate reader (enzyme-labelling measuring instrument).
Background: A reporter such as luciferase makes a cellular process visible.

In assay [2] the test system is db/db mice with type 2 diabetes. Description: Random blood glucose of db/db mice after single subcutaneous injection. The format is in vivo. Conditions: for random blood glucose: n = 8; for decrease rate of random blood glucose: versus control group. The method, then:
db/db mice with type 2 diabetes were divided into six groups based on a random blood glucose and body weight (8 per group). […] The random blood glucose of the mice is determined at differete time after administration.
Preparation method: 1 bottle of the compound (2 mg/bottle) was dissolved with double-distilled water to prepare a colorless and transparent solution of which the concentration is 2 mg/mL. […] “ACCU-CHEK® Advantage” blood glucose meter form Roche was used to determine the blood glucose.
Route and volume of administration: Single subcutaneous injection dose, dose volume was 5 mL/kg. […]
The random blood glucoses of db/db mice were measured.
Each group has 8 mice, half male and half female. The animals of each group were administered with the test compounds or solvent control respectively through single subcutaneous injection.

Non-standard residues stand in square brackets, D forms with d. Residues, ends and D or L forms follow the SMILES beside them. *: point of attachment. εLys(Nα-Palmitoyl) = CCCCCCCCCCCCCCCC(=O)N[C@@H](CCCCN*)C(=O)O

T1 sequence (P43220 24-463, species assumed): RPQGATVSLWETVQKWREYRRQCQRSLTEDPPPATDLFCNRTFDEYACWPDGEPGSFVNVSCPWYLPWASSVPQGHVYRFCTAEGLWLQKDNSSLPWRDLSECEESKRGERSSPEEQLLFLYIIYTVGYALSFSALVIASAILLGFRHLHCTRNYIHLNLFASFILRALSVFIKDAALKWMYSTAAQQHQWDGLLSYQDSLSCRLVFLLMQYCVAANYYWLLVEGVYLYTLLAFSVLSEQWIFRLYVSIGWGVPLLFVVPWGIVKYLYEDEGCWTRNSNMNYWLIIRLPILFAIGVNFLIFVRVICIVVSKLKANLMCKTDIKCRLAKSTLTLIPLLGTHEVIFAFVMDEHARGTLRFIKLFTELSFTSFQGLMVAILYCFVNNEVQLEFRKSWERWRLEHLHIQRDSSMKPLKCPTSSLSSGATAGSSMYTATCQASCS

Regarding `CCCCCCCCCCCCCCCC(=O)N[C@@H](CCCCNC(=O)[C@H](CO)NC(=O)[C@@H]1CCCN1C(=O)[C@@H]1CCCN1C(=O)[C@@H]1CCCN1C(=O)[C@H](C)NC(=O)CNC(=O)[C@H](CO)NC(=O)[C@H](CO)NC(=O)[C@@H]1CCCN1C(=O)CNC(=O)CNC(=O)[C@H](CCCNC(=N)N)NC(=O)[C@@H](NC(=O)[C@H](CC(C)C)NC(=O)[C@H](Cc1c[nH]c2ccccc12)NC(=O)[C@H](C)NC(=O)[C@@H](NC(=O)[C@H](Cc1ccccc1)NC(=O)[C@H](CCC(=O)O)NC(=O)[C@H](CCCCN)NC(=O)[C@H](C)NC(=O)[C@H](C)NC(=O)[C@H](CCC(=O)O)NC(=O)[C@H](CCC(=O)O)NC(=O)[C@H](CCC(=O)O)NC(=O)[C@H](CC(C)C)NC(=O)[C@H](Cc1ccc(O)cc1)NC(=O)[C@H](CO)NC(=O)[C@H](CO)NC(=O)[C@@H](NC(=O)[C@H](CC(=O)O)NC(=O)[C@H](CO)NC(=O)[C@@H](NC(=O)[C@H](Cc1ccccc1)NC(=O)[C@@H](NC(=O)CNC(=O)[C@H](CCC(=O)O)NC(=O)[C@@H](C)NC(=O)[C@@H](N)Cc1c[nH]cn1)[C@@H](C)O)[C@@H](C)O)C(C)C)[C@@H](C)CC)C(C)C)C(=O)O` [HS-20003] (H-H[dA]EGTFTSDVSSYLEEEAAKEFIAWLVRGGPSSGAPPPS-{εLys(Nα-Palmitoyl)}; N-terminus and C-terminus assumed), the Emax in assay [1] worked out at 87.9%. Also, the random blood glucose came to 19.56 ± 1.19 mmol/L in assay [2] (3 μg/kg single s.c., 1 h after administration, X ± s); 19.44 ± 1.48 mmol/L in assay [2] (3 μg/kg single s.c., 2 h after administration, X ± s); 19.63 ± 1.12 mmol/L in assay [2] (3 μg/kg single s.c., 4 h after administration, X ± s); 22.59 ± 1.05 mmol/L in assay [2] (3 μg/kg single s.c., 8 h after administration, X ± s); 25.16 ± 1.49 mmol/L in assay [2] (3 μg/kg single s.c., before administration, X ± s); 20.74 ± 0.98 mmol/L in assay [2] (10 μg/kg single s.c., 1 h after administration, ± s). Further, the random blood glucose in assay [2] (10 μg/kg single s.c., 2 h after administration, ± s) is reported as 21.10 ± 0.80 mmol/L; in assay [2] (10 μg/kg single s.c., 4 h after administration, ± s), 19.54 ± 1.80 mmol/L; in assay [2] (10 μg/kg single s.c., 8 h after administration, ± s), 22.14 ± 2.16 mmol/L; in assay [2] (10 μg/kg single s.c., 24 h after administration, ± s) it was 24.45 ± 1.55 mmol/L; in assay [2] (10 μg/kg single s.c., before administration, ± s), 23.20 ± 1.36 mmol/L. Moreover, the “decrease rate of random blood glucose” value in assay [2] (3 μg/kg single s.c., 1 h after administration) was found to be 17.33%; in assay [2] (3 μg/kg single s.c., 2 h after administration) it was 14.09%; in assay [2] (3 μg/kg single s.c., 4 h after administration), 10.80%; in assay [2] (3 μg/kg single s.c., 8 h after administration), 11.03%; in assay [2] (10 μg/kg single s.c., 1 h after administration) it was 23.62%; in assay [2] (10 μg/kg single s.c., 2 h after administration) it was 25.93%. The “decrease rate of random blood glucose” value stood at 36.49% in assay [2] (10 μg/kg single s.c., 4 h after administration); 26.12% in assay [2] (10 μg/kg single s.c., 8 h after administration); 11.89% in assay [2] (10 μg/kg single s.c., 24 h after administration). Besides, the “random blood glucose values compared with those of the control group” value in assay [2] (3 μg/kg single s.c., after 2 h, 4 h and 8 h) is “no significant difference”; in assay [2] (3 μg/kg single s.c., after one hour, P<0.05), “decreased significantly”; in assay [2] (10 μg/kg single s.c., after 2 h, 4 h and 8 h), “still keep at a lower level”; in assay [2] (10 μg/kg single s.c., after 24 hours) it was “no significant difference”; in assay [2] (10 μg/kg single s.c., after one hour, P<0.01), “decreased significantly”. For the same compound, in assay [2] (single s.c., dose of 3 μg/kg (so in the source)), the “random blood glucose level (words, test conclusions)” value is “decreased obviously”.

Regarding `CCCCCCCCCCCCCCCC(=O)N[C@@H](CCCCNC(=O)[C@H](CO)NC(=O)[C@@H]1CCCN1C(=O)[C@@H]1CCCN1C(=O)[C@@H]1CCCN1C(=O)CNC(=O)CNC(=O)[C@H](CCCCN)NC(=O)[C@H](CCCCN)NC(=O)CNC(=O)[C@H](CCCNC(=N)N)NC(=O)CNC(=O)[C@H](CCCCN)NC(=O)[C@@H](NC(=O)[C@H](CC(C)C)NC(=O)[C@H](Cc1c[nH]c2ccccc12)NC(=O)[C@@H](NC(=O)[C@@H](NC(=O)[C@H](Cc1ccccc1)NC(=O)[C@H](CCC(=O)O)NC(=O)[C@H](C)NC(=O)[C@H](C)NC(=O)[C@H](CCC(N)=O)NC(=O)CNC(=O)[C@H](CCC(=O)O)NC(=O)[C@H](CC(C)C)NC(=O)[C@H](Cc1ccc(O)cc1)NC(=O)[C@H](CO)NC(=O)[C@H](CO)NC(=O)[C@@H](NC(=O)[C@H](CC(=O)O)NC(=O)[C@H](CO)NC(=O)[C@@H](NC(=O)[C@H](Cc1ccccc1)NC(=O)[C@@H](NC(=O)CNC(=O)[C@H](CCC(=O)O)NC(=O)[C@H](C)NC(=O)[C@@H](N)Cc1c[nH]cn1)[C@@H](C)O)[C@@H](C)O)C(C)C)[C@@H](C)CC)C(C)C)C(C)C)C(=O)O` [HS-20005], the Emax in assay [1] came to 89.1%.

For `CCCCCCCCCCCCCCCC(=O)N[C@@H](CCCCNC(=O)[C@H](CO)NC(=O)[C@@H]1CCCN1C(=O)[C@@H]1CCCN1C(=O)[C@@H]1CCCN1C(=O)CNC(=O)CNC(=O)[C@H](CCCCN)NC(=O)[C@H](CCCCN)NC(=O)CNC(=O)[C@H](CCCNC(=N)N)NC(=O)CNC(=O)[C@H](CCCCN)NC(=O)[C@@H](NC(=O)[C@H](CC(C)C)NC(=O)[C@H](Cc1c[nH]c2ccccc12)NC(=O)[C@@H](NC(=O)[C@@H](NC(=O)[C@H](Cc1ccccc1)NC(=O)[C@H](CCC(=O)O)NC(=O)[C@H](C)NC(=O)[C@H](C)NC(=O)[C@H](CCC(N)=O)NC(=O)[C@H](CCC(=O)O)NC(=O)[C@H](CCC(=O)O)NC(=O)[C@H](CC(C)C)NC(=O)[C@H](Cc1ccc(O)cc1)NC(=O)[C@H](CO)NC(=O)[C@H](CO)NC(=O)[C@@H](NC(=O)[C@H](CC(=O)O)NC(=O)[C@H](CO)NC(=O)[C@@H](NC(=O)[C@H](Cc1ccccc1)NC(=O)[C@@H](NC(=O)CNC(=O)[C@H](CCC(=O)O)NC(=O)[C@H](C)NC(=O)[C@@H](N)Cc1c[nH]cn1)[C@@H](C)O)[C@@H](C)O)C(C)C)[C@@H](C)CC)C(C)C)C(C)C)C(=O)O` [HS-20007], in assay [1], the Emax is 87%.
